According to patent publication US20230085307A1, “PYRIDAZINONE COMPOUND AND HERBICIDE” (NISSAN CHEMICAL CORPORATION, priority 2019, published 2023):

What was measured:
late watergrass = experiment: Test Example 1: herbicidal activity, application before weed generation under submerged conditions (Table 16, symbol A); assay type: in vivo, late watergrass (Echinochloa oryzicola); conditions: 320 g/ha applied herbicide
Procedure, shortened: (§1)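 Emulsion formulation, water-diluted to set dose, was put onto the flooded surface (4 cm depth, alluvial soil) the same day weeds were sown and 2.5-leaf rice transplanted. After 3 weeks at 25-30 °C under glass, each species was rated 0 (≤5% kill) to 5 (≥90% kill).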

Japanese bulrush = experiment: Test Example 1: herbicidal activity, application before weed generation under submerged conditions (Table 16, symbol B); assay type: in vivo, Japanese bulrush (Schoenoplectus juncoides); conditions: 320 g/ha applied herbicide
Procedure, shortened: as §1

oval-leafed pondweed = experiment: Test Example 1: herbicidal activity, application before weed generation under submerged conditions (Table 16, symbol C); assay type: in vivo, oval-leafed pondweed (Monochoria vaginalis); conditions: 320 g/ha applied herbicide
Procedure, shortened: as §1

barnyard grass [1] = experiment: Test Example 3: herbicidal effect by foliage application, Wagner pot (Table 18, symbol H); assay type: in vivo, barnyard grass (Echinochloa crus-galli); conditions: amount of applied herbicide 320 g/ha
Procedure, shortened: (§2)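 Plants were sown in alluvial soil held under 0.1–0.5 cm standing water and grown 14 days in a greenhouse at 25–30 °C. An emulsifiable formulation, water-diluted to the set dose, was then sprayed onto the foliage, and effects were scored three weeks later using previously defined criteria.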

Chinese sprangletop = experiment: Test Example 3: herbicidal effect by foliage application, Wagner pot (Table 18, symbol D); assay type: in vivo, chinese sprangletop (Leptochloa chinensis); conditions: amount of applied herbicide 320 g/ha
Procedure, shortened: as §2

rice flat sedge = experiment: Test Example 3: herbicidal effect by foliage application, Wagner pot (Table 18, symbol E); assay type: in vivo, rice flat sedge (Cyperus iria); conditions: amount of applied herbicide 320 g/ha
Procedure, shortened: as §2

southern crabgrass [2] = experiment: Test Example 4: herbicidal effect by soil treatment (Table 19, symbol F); assay type: in vivo, southern crabgrass (Digitaria ciliaris); conditions: amount of applied herbicide 320 g/ha
Procedure, shortened: (§3)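 Seeds were sown in sterilized diluvial soil and covered with about 1.5 cm of soil. An emulsion formulation diluted with water to a predetermined herbicide amount was sprayed evenly onto the soil surface. Plants grew in a greenhouse at 25° C. to 30° C., and the effect was scored three weeks after application using criteria from an earlier test.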

green foxtail [3] = experiment: Test Example 4: herbicidal effect by soil treatment (Table 19, symbol G); assay type: in vivo, green foxtail (Setaria viridis); conditions: amount of applied herbicide 320 g/ha
Procedure, shortened: as §3

barnyard grass [4] = experiment: Test Example 4: herbicidal effect by soil treatment (Table 19, symbol H); assay type: in vivo, barnyard grass (Echinochloa crus-galli); conditions: amount of applied herbicide 320 g/ha
Procedure, shortened: as §3

wild oat [5] = experiment: Test Example 4: herbicidal effect by soil treatment (Table 19, symbol I); assay type: in vivo, wild oat (Avena fatua); conditions: amount of applied herbicide 320 g/ha
Procedure, shortened: as §3

blackgrass [6] = experiment: Test Example 4: herbicidal effect by soil treatment (Table 19, symbol J); assay type: in vivo, blackgrass (Alopecurus myosuroides); conditions: amount of applied herbicide 320 g/ha
Procedure, shortened: as §3

Italian ryegrass [7] = experiment: Test Example 4: herbicidal effect by soil treatment (Table 19, symbol K); assay type: in vivo, Italian ryegrass (Lolium multiflorum); conditions: amount of applied herbicide 320 g/ha
Procedure, shortened: as §3

windgrass = experiment: Test Example 4: herbicidal effect by soil treatment (Table 19, symbol L); assay type: in vivo, windgrass (Apera spica-venti); conditions: amount of applied herbicide 320 g/ha
Procedure, shortened: as §3

velvetleaf [8] = experiment: Test Example 4: herbicidal effect by soil treatment (Table 19, symbol M); assay type: in vivo, velvetleaf (Abutilon theophrasti); conditions: amount of applied herbicide 320 g/ha
Procedure, shortened: as §3

redroot pigweed = experiment: Test Example 4: herbicidal effect by soil treatment (Table 19, symbol N); assay type: in vivo, redroot pigweed (Amaranthus retroflexus); conditions: amount of applied herbicide 320 g/ha
Procedure, shortened: as §3

lambsquarters [9] = experiment: Test Example 4: herbicidal effect by soil treatment (Table 19, symbol O); assay type: in vivo, lambsquarters (Chenopodium album); conditions: amount of applied herbicide 320 g/ha
Procedure, shortened: as §3

chickweed [10] = experiment: Test Example 4: herbicidal effect by soil treatment (Table 19, symbol P); assay type: in vivo, common chickweed (Stellaria media); conditions: amount of applied herbicide 320 g/ha
Procedure, shortened: as §3

false cleavers [11] = experiment: Test Example 4: herbicidal effect by soil treatment (Table 19, symbol Q); assay type: in vivo, false cleavers (Galium spurium); conditions: amount of applied herbicide 320 g/ha
Procedure, shortened: as §3

persian speedwell [12] = experiment: Test Example 4: herbicidal effect by soil treatment (Table 19, symbol R); assay type: in vivo, Persian speedwell (Veronica persica); conditions: amount of applied herbicide 320 g/ha
Procedure, shortened: as §3

southern crabgrass [13] = experiment: Test Example 5: herbicidal effect by foliage application, plastic box (Table 20, symbol F); assay type: in vivo, southern crabgrass (Digitaria ciliaris); conditions: foliage application, 320 g/ha, evaluated three weeks after application
Procedure, shortened: (§4)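 Plants sown in sterilized diluvial soil and grown 14 days in a greenhouse at 25° C to 30° C, then sprayed on the foliage with the compound's emulsion diluted in water to a predetermined herbicide amount. Injury to weeds and crops scored three weeks after application on a visual rating scale.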

green foxtail [14] = experiment: Test Example 5: herbicidal effect by foliage application, plastic box (Table 20, symbol G); assay type: in vivo, green foxtail (Setaria viridis); conditions: foliage application, 320 g/ha, evaluated three weeks after application
Procedure, shortened: as §4

barnyard grass [15] = experiment: Test Example 5: herbicidal effect by foliage application, plastic box (Table 20, symbol H); assay type: in vivo, barnyard grass (Echinochloa crus-galli); conditions: foliage application, 320 g/ha, evaluated three weeks after application
Procedure, shortened: as §4

wild oat [16] = experiment: Test Example 5: herbicidal effect by foliage application, plastic box (Table 20, symbol I); assay type: in vivo, wild oat (Avena fatua); conditions: foliage application, 320 g/ha, evaluated three weeks after application
Procedure, shortened: as §4

blackgrass [17] = experiment: Test Example 5: herbicidal effect by foliage application, plastic box (Table 20, symbol J); assay type: in vivo, blackgrass (Alopecurus myosuroides); conditions: foliage application, 320 g/ha, evaluated three weeks after application
Procedure, shortened: as §4

Italian ryegrass [18] = experiment: Test Example 5: herbicidal effect by foliage application, plastic box (Table 20, symbol K); assay type: in vivo, Italian ryegrass (Lolium multiflorum); conditions: foliage application, 320 g/ha, evaluated three weeks after application
Procedure, shortened: as §4

velvetleaf [19] = experiment: Test Example 5: herbicidal effect by foliage application, plastic box (Table 20, symbol M); assay type: in vivo, velvetleaf (Abutilon theophrasti); conditions: foliage application, 320 g/ha, evaluated three weeks after application
Procedure, shortened: as §4

lambsquarters [20] = experiment: Test Example 5: herbicidal effect by foliage application, plastic box (Table 20, symbol O); assay type: in vivo, lambsquarters (Chenopodium album); conditions: foliage application, 320 g/ha, evaluated three weeks after application
Procedure, shortened: as §4

chickweed [21] = experiment: Test Example 5: herbicidal effect by foliage application, plastic box (Table 20, symbol P); assay type: in vivo, common chickweed (Stellaria media); conditions: foliage application, 320 g/ha, evaluated three weeks after application
Procedure, shortened: as §4

false cleavers [22] = experiment: Test Example 5: herbicidal effect by foliage application, plastic box (Table 20, symbol Q); assay type: in vivo, false cleavers (Galium spurium); conditions: foliage application, 320 g/ha, evaluated three weeks after application
Procedure, shortened: as §4

persian speedwell [23] = experiment: Test Example 5: herbicidal effect by foliage application, plastic box (Table 20, symbol R); assay type: in vivo, Persian speedwell (Veronica persica); conditions: foliage application, 320 g/ha, evaluated three weeks after application
Procedure, shortened: as §4

## CCCC(=O)Oc1c(C)nn(C)c(=O)c1-c1c(-c2ccc(F)cc2OC)sc2ccc(C)cc12 [2-149]
Late watergrass
  Herbicidal effect on A: late watergrass (grade 0-5): 3 (Herbicidal rate of 40% or more and less than 70%)
Japanese bulrush
  Herbicidal effect on B: Japanese bulrush (grade 0-5): 1 (Herbicidal rate of 5% or more and less than 20%)
oval-leafed pondweed
  Herbicidal effect on C: oval-leafed pondweed (grade 0-5): 0 (Herbicidal rate of 5% or less (almost no effect))
Barnyard grass [1]
  herbicidal effect on H: barnyard grass: 5 (Herbicidal rate of 90% or more (almost completely withered))
Chinese sprangletop
  herbicidal effect on D: Chinese sprangletop: 0 (Herbicidal rate of 5% or less (almost no effect))
Rice flat sedge
  herbicidal effect on E: rice flat sedge: 3 (Herbicidal rate of 40% or more and less than 70%)
Southern crabgrass [2]
  F: southern crabgrass, herbicidal effect rating: 0 (Herbicidal rate of 5% or less (almost no effect))
Green foxtail [3]
  G: green foxtail, herbicidal effect rating: 4 (Herbicidal rate of 70% or more and less than 90%)
Barnyard grass [4]
  H: barnyard grass, herbicidal effect rating: 0 (Herbicidal rate of 5% or less (almost no effect))
Wild oat [5]
  I: wild oat, herbicidal effect rating: 0 (Herbicidal rate of 5% or less (almost no effect))
Blackgrass [6]
  J: blackgrass, herbicidal effect rating: 0 (Herbicidal rate of 5% or less (almost no effect))
Italian ryegrass [7]
  K: Italian ryegrass, herbicidal effect rating: 0 (Herbicidal rate of 5% or less (almost no effect))
windgrass
  L: windgrass, herbicidal effect rating: 0 (Herbicidal rate of 5% or less (almost no effect))
Velvetleaf [8]
  M: velvetleaf, herbicidal effect rating: 0 (Herbicidal rate of 5% or less (almost no effect))
Redroot pigweed
  N: redroot pigweed, herbicidal effect rating: 5 (Herbicidal rate of 90% or more (almost completely withered))
Lambsquarters [9]
  O: lambsquarters, herbicidal effect rating: 4 (Herbicidal rate of 70% or more and less than 90%)
Chickweed [10]
  P: chickweed, herbicidal effect rating: 3 (Herbicidal rate of 40% or more and less than 70%)
False cleavers [11]
  Q: false cleavers, herbicidal effect rating: 3 (Herbicidal rate of 40% or more and less than 70%)
Persian speedwell [12]
  R: persian speedwell, herbicidal effect rating: 3 (Herbicidal rate of 40% or more and less than 70%)
Southern crabgrass [13]
  herbicidal effect on F: southern crabgrass (criteria 0-5): 3 (Herbicidal rate of 40% or more and less than 70%)
Green foxtail [14]
  herbicidal effect on G: green foxtail (criteria 0-5): 5 (Herbicidal rate of 90% or more (almost completely withered))
Barnyard grass [15]
  herbicidal effect on H: barnyard grass (criteria 0-5): 3 (Herbicidal rate of 40% or more and less than 70%)
Wild oat [16]
  herbicidal effect on I: wild oat (criteria 0-5): 1 (Herbicidal rate of 5% or more and less than 20%)
Blackgrass [17]
  herbicidal effect on J: blackgrass (criteria 0-5): 2 (Herbicidal rate of 20% or more and less than 40%)
Italian ryegrass [18]
  herbicidal effect on K: Italian ryegrass (criteria 0-5): 0 (Herbicidal rate of 5% or less (almost no effect))
Velvetleaf [19]
  herbicidal effect on M: velvetleaf (criteria 0-5): 1 (Herbicidal rate of 5% or more and less than 20%)
Lambsquarters [20]
  herbicidal effect on O: lambsquarters (criteria 0-5): 4 (Herbicidal rate of 70% or more and less than 90%)
Chickweed [21]
  herbicidal effect on P: chickweed (criteria 0-5): 5 (Herbicidal rate of 90% or more (almost completely withered))
False cleavers [22]
  herbicidal effect on Q: false cleavers (criteria 0-5): 3 (Herbicidal rate of 40% or more and less than 70%)
Persian speedwell [23]
  herbicidal effect on R: persian speedwell (criteria 0-5): 3 (Herbicidal rate of 40% or more and less than 70%)
